# Experimental data taken from PMC2818873 (Bioorganic & medicinal chemistry, 2009).
# How the values were obtained:
# P. carinii DHFR = target: T1, P. carinii DHFR (Pneumocystis carinii, UniProt P16184); format: biochemical; settings: IC50 rat liver DHFR / IC50 P. carinii DHFR
# T1 sequence (P16184 1-206): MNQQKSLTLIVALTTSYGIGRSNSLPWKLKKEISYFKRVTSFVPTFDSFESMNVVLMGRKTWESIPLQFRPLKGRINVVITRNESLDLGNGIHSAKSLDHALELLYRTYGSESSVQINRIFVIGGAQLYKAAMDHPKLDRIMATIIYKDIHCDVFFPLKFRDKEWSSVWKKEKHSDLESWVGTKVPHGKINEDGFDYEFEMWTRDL
# [1] = tested on: folyl poly-γ-glutamate synthetase (FPGS); settings: cited from earlier work
SMILES,Selectivity ratio rl/pc (P. carinii DHFR),FPGS substrate activity [1]
"Cc1c(Sc2cccc3ccccc23)oc2nc(N)nc(N)c12 [Compound 6, 2,4-Diamino-5-methyl-6-(1-naphthylthio)furo[2,3-d]pyrimidine]",>10,–
Cc1c(Sc2ccc(C(=O)N[C@@H](CCC(=O)O)C(=O)O)cc2)[nH]c2nc(N)nc(N)c12 [Compound 4],–,reasonable FPGS substrate activity
